Entries after “also recorded” stand apart in the source; their conditions may differ.
How the values were obtained:
[1] = Plasma ascorbate during continuous IVC infusion (Riordan Phase I trial); type: in vivo, human; conditions: continuous infusion 150-710 mg/kg/day, cancer patients
Description: (§1) The second trial of the treatment of cancer patients by continuous infusions was conducted by Dr. Riordan. In this Phase I clinical trial (hereafter referred to as the Riordan trial), patients were administered continuous infusions using an infusion pump [See for example Ref 1]. In the Riordan Clinic trial, patients were treated by continuous infusion, which was administered over much longer periods of time than bolus intermittent treatments. For most patients, the duration of the continuous infusion was at least 20 hours, as the duration of bolus infusion is from one hour to three hours, depending on the dosage.
(§2) The trial lasted eight weeks and involved terminal patients with poor prognosis. Twenty-four (24) subjects were given continuous IVC at doses between 150 and 710 mg/kg/day (10-50 grams per day). Most of the patients had colon cancer with liver and lung metastasis and three patients had pancreatic or liver cancer. All patients had several chemotherapy/radiation treatments before entering the study.
The most obvious effect of IVC therapy was to increase patient vitamin C levels. […] In fact, ten out of twenty-four subjects entered the trial with plasma ascorbate concentrations undetectable by the colorimetric ascorbate assay used at that time, with another four having ascorbate concentrations below the normal range (FIG. 1). IVC infusion increased plasma levels to 1 mM. […]

terminal cancer patients [2] = assay: Lymphocyte and neutrophil counts and neutrophil-to-lymphocyte ratio in cancer patients on continuous IVC (updated analysis of Riordan trial); type: in vivo, human
Description: as §1, §2
(§3) Recently, previously unpublished parameters from the clinical study were analyzed, including blood chemistry and blood count parameters that are reportedly related to patient prognosis and degree of inflammation [See for example Ref 2]. This included: absolute neutrophil and lymphocyte counts and the neutrophil-to-lymphocyte ratio; lactate dehydrogenase, an enzyme involved in tumor initiation, metastasis, and recurrence; creatinine, the depletion of which is associated with cachexia; and glucose, as hyperglycemia is common in cancer patients.

terminal cancer patients [3] = assay: Blood chemistry (lactate dehydrogenase, glucose) and survival in cancer patients on continuous IVC (updated analysis of Riordan trial); type: in vivo, human
Description: as §1, §2, §3

terminal cancer patients [4] = assay: Safety and adverse events of continuous IVC infusion (Riordan trial); type: in vivo, human
Description: as §1
as §2, with “cancer.” for “cancer. All patients had several chemotherapy/radiation treatments before entering the study.”

[5] = system: patients suffering from cancer; assay: Pulse-press intravenous vitamin C protocol in cancer patients (Example 3); type: in vivo, human
Description: Intravenous vitamin C therapy is given by intermittent, high dose infusion that involves administering high-dose vitamin C (15-100 grams) over a 1-2 hour window and repeated twice weekly (every 2-4 days). The intermittent frequency of high-dose administration is referred to as a PULSED approach or as a PULSE dose.
As an adjunct to high-dose intermittent vitamin C infusions, experiments described herein have led to the developments of a method for administering continuous low to mid doses of vitamin C infusion using an elastomeric pump (non-electric) infusion pump over an 8 to 48 hour window. This method of continuous infusion targets a therapeutic dose anywhere between 4 to 50 grams of vitamin C per infusion window and is referred to as a PRESS approach or a PRESS dose.
The intravenous vitamin C+(IVC+) protocol for the treatment of cancer, and other chronic conditions, described herein combines the pulse approach with a press protocol into a PULSE-PRESS approach whereby vitamin C infusions alternate between a high-dose rapid infusion with a low to mid dose continuous infusion.
This clinical application of the IVC+ Protocol is centered on a 2-day cycle of a rapid PULSE infusion immediately followed by a PRESS continuous infusion at a rate of […] of Vitamin C per hour. Over the two week period, each pulse dose of vitamin C is increased to a therapeutic dose as outlined in the original Riordan IVC Protocol [See for example. Ref 1]. Each week back to back pulse-press doses are given followed by a final pulse dose leading into a rest period. These cyclic rest periods are important wherein they provide recovery time necessary for the patient to assimilate the oxidative stress generated within the body.
The protocol has been used on about six subjects to ascertain safety, feasibility and usability of the pump and in coordinating the process with existing therapies. The types of cancer for these patients varied.

terminal cancer patients [6] = conditions: 10 g/day continuous IV infusion for 10 days, then oral 10-30 g/day; 100 terminal cancer patients; cited from earlier work
[7] = rate of increase of LDH before vs after treatment
[8] = a patient suffering from cancer

SMILES: O=C1O[C@H]([C@@H](O)CO)C(O)=C1O [IVC, L-ascorbic acid]
- plasma ascorbate level reached during IVC infusion [1]: 1 mM
- median improvement in the lymphocyte count (terminal cancer patients [2]; all patients with lymphocyte levels lower than normal range, continuous IVC): 22%
- neutrophil counts, tendency during treatment (terminal cancer patients [2]; most of the patients): normalization of the neutrophil counts
- rate of growth (change) of neutrophil-to-lymphocyte ratio (NLR) (terminal cancer patients [2]; one week before treatment vs during treatment, continuous IVC): tended to decrease the rate of growth of NLR; also recorded: rate of change was decreased
- neutrophil counts (terminal cancer patients [2]; patients for whom neutrophil counts are elevated): reducing neutrophil counts
- lymphocyte and neutrophil counts (terminal cancer patients [2]; patients in whom these numbers are below normal): increase lymphocyte and neutrophil counts
- median improvement in the lymphocyte count (terminal cancer patients [2]; patients with severe lymphopenia who completed treatment, continuous IVC): 69%
- median survival time (terminal cancer patients [3]; participants with initial LDH higher than normal range (LDH>245 U/L)): 95 days
- blood glucose levels during IVC therapy (terminal cancer patients [3]; patients with concentrations higher than normal range): decreased
- patients with LDH rate of growth decreased (terminal cancer patients [3]; [7]): 38 % of patients
- patients with LDH rate of growth increased (terminal cancer patients [3]; [7]): 28.6 % of patients
- patients with LDH rate of growth not changed (terminal cancer patients [3]; [7]): 33.4 % of patients
- median survival time (terminal cancer patients [3]; subjects with normal initial LDH values): 173 days
- Grade 3 adverse events (terminal cancer patients [4]; considered possibly related to the ascorbate therapy): Most of the Grade 3 events involved hypokalemia
- side effects, overall severity (terminal cancer patients [4]; continuous IVC infusion trial): mostly minor
- renal function indicators BUN and creatinine (terminal cancer patients [4]; during therapy): remained relatively stable
- uric acid (terminal cancer patients [4]; during therapy): decreased during therapy
- grade of the most common side effects (terminal cancer patients [4]; in vivo): generally minor (Grade 1)
- dry skin or mouth (terminal cancer patients [4]; of 24 subjects): 7 subjects
- edema (terminal cancer patients [4]; of 24 subjects): 7 subjects
- fatigue (terminal cancer patients [4]; of 24 subjects): 6 subjects
- injector port occlusion (terminal cancer patients [4]; of 24 subjects): 10 subjects
- nausea (terminal cancer patients [4]; of 24 subjects): 11 subjects
- subjects with BUN increases during therapy (terminal cancer patients [4]; of 24 subjects): four
- development of chemo resistance [5, 8]: no signs of the development of chemo resistance
- efficacy of treatment [5, 8]: appeared efficacious
- tolerability [5, 8]: well-tolerated
- tolerability ([5]; pulse press protocol, about six subjects, various cancers): well tolerated
- survival time and quality of life versus patients who had not received IVC (terminal cancer patients [6]): increased survival time and improved quality of life

— US20220273614A1, “INTRAVENOUS VITAMIN C THERAPY PROTOCOL FOR THE TREATMENT OF CANCER” (Riordan Clinic, priority 2019, published 2022)
